Median survival and tumor growth data for one compound are collected here from US12560591B2, “Methods of treatment with CD8 T cell-mediated immune therapy” (Providence Health & Services—Oregon, priority 2019, dated 2026).

The test system of the test is CT26 tumors. As to the kind of experiment: CT26 tumor model: ALK5 inhibitor with chemoradiation (RT+5FU), tumor growth and survival. Type of test: in vivo, mouse. Particulars: CT26 tumor-bearing mice, LY added to RT+5FU, FIG. 1B. Here is the method: FIGS. 1A-1D are a series of panels showing that the TGFβR1 antagonist LY2157299 enhances chemo-radiation efficacy dependent on CD8α^+ cells in CT26 tumors. FIG. 1A is a treatment schema in the CT26 tumor model. Six to eight week old BALB/c mice were implanted subcutaneously in the left flank with 2×10^5 CT26 tumor cells. Seven days following implant, animals were randomized based on tumor size, and vehicle control or LY2157299 compound were administered by oral gavage twice daily every 12 hours at 150 mg/kg for 7 consecutive days. At day 14, some mice received five consecutive radiation treatments of 5 Gy targeted to tumor tissue along with 25 mg/kg injections of 5-fluorouracil (5FU) chemotherapy administered intraperitoneally on days 14, 16, and 18. LY treatment groups resumed BID oral dosing from days 21-27. Mean tumor growth (i) and survival (ii) were assessed three times per week up to 100 days or death (FIG. 1B). […] Arrows identify pSMAD2^+CD8^+ cells in vehicle mice. […] NS=not significant, *=p<0.05, **=p<0.01, ***=p<0.001.
FIGS. 6A-6D are a series of panels showing generation of tumor-specific immune memory following tumor eradication with TGFβ inhibition with chemoradiation. […] The number of mice cured over the total number of mice in each group is indicated in the top right corner. One representative experiment is shown reflective of two independent experiments. Mice who eradicated their tumors were rechallenged with CT26 and 4T1 tumors. CT26 tumor cells were rechallenged on the opposite flank as from the original cured tumor. In FIG. 6D, 4T1 and CT26 tumor establishment and growth was followed for up to 60 days post re-challenge. The number of tumors rejected per total mice rechallenged in each tumor type is indicated in the top right portion of the graph. ***=p<0.001
Animal studies and cell culture: C57BL/6, BALB/c, CD8Cre, Lyz2Cre, and Foxp3-eGFP-CreERT2 mice were purchased from the Jackson Laboratories (Bar Harbor, Maine). ALK5flox/flox mice were a generous gift from Andrew Weinberg (Providence Cancer Center). All transgenic mice were on C57BL/6 background. CT26, MC38, 4T1 and MCA205-OVA tumor cells were grown in DMEM medium supplemented with 10% heat-inactivated fetal bovine serum and 1% penicillin-streptomycin to 60-90% confluence prior to tumor implantation. All cells were washed 2× with 1×PBS and implanted subcutaneously in a 100 μl volume of 1×PBS in the lower flanks. 1×10^5 MC38 cells, 2×10^5 CT26 cells, 5×10^4 4 T1 cells, and 5×10^6 MCA205-OVA cells were used for tumor induction. Tumors were measured 3×/week until they reached the survival end-point of 144 mm^2. […] Following single cell preparation, cells were washed and resuspended in FACS buffer (1×PBS, 1% BSA, 2 mM EDTA) and counted prior to FACS staining using a Guava EasyCyte cytometer (Millipore). […]

As for `Cc1cccc(-c2nn3c(c2-c2ccnc4ccc(C(N)=O)cc24)CCC3)n1` [LY2157299], the tumor growth entry is reported as “significantly slowed tumor growth”. Where the note is “150 mg/kg BID oral, p<0.01”, the median survival stood at 45 days.
